Consider one molecule from patent US20100184869A1, “METHOD AND KIT FOR DETERMINING SIRTUIN MODULATING AGENTS, SIRTUIN MODULATING PROCEDURE, SIRTUIN MODULATING COMPOUNDS AND COMPOSITIONS INCLUDING THE SAME” (priority 2008, published 2010).

The subject of the assay is SIRT1 gene expression. Put plainly: semi-quantitative RT-PCR of sirtuin mRNA/β-actin mRNA ratio in zebrafish tissues after resveratrol. The format is in vivo, zebrafish (Danio rerio). The note with it: FIG. 3. From the text:
On the Y axis, I is the rate of mRNA X, a is muscle and b is liver.
The method for determining modulating agents of sirtuin gene expression is comprised of the following stages: • a) contacting cells comprising at least on gene of the sirtuin family and the β-actin gene, with a modulating agent; • b) determining the relative abundance of mRNA of the sirtuin-family gene; • c) determining the relative abundance of the mRNA of the β-actin gene; and • d) determining the mRNA SIRTImRNA β-actin ratio.
The mapping of the pattern and levels of expression in each one of the eight genes related to zebrafish sirtuin was determined in eight tissues (spleen, gills, brain, heart, liver, female sexual organs and male sexual organs, skeletal muscle and kidneys), by way of the analysis of semi-quantitative RT-PCR comparing the relative abundance of mRNA of each one of the genes related to sirtuins with the mRNA of the gene codifying for β-actin (mean ±E.P.) (FIG. 2 and Table 2).

Each structure is given as a SMILES string.

With `Oc1ccc(/C=C/c2cc(O)cc(O)c2)cc1` [resveratrol, 3.4′,5-trihydroxy-trans-stilbene], the “SIRT1 gene expression (mRNA SIRT/mRNA β-actin ratio)” value (zebrafish liver) is recorded as “significant increase” and the “SIRT1 gene expression (mRNA SIRT/mRNA β-actin ratio)” value (zebrafish skeletal muscle) was “significant increase”.
